The record followed here is US12600698B2, “Kinase inhibitors” (Vidya Therapeutics, Inc., priority 2021, dated 2026).

The target of the assay is BTK (Homo sapiens, UniProt Q06187). Nature of the assay: BTK IC50 (EZ reader kinase assay). Type of assay: biochemical. Also on record: purchased Carna. As to conditions: ATP 1 mM, BTK 2 nM, 90 minutes at room temperature. The method, then: Solutions of compounds (test or control) in DMSO were prepared at the desired concentrations, and serially diluted to 11 concentrations by 3-fold dilution in 384pp-plate using TECAN EVO200. 20 nL of stock were transferred to 384 plate using Echo550. DMSO was used as vehicle control.
Two separate solutions were prepared—an ATP solution containing MgCl2 (10 mM), Brij-35 (0.01%), DTT (2 mM), BSA (0.05%), EGTA (1 mM), HEPE (pH7.5) (50 mM), FLPeptide (6 uM) and ATP (4 mM); and a BTK solution containing MgCl2 (10 mM), Brij-35 (0.01%), DTT (2 mM), BSA (0.05%), EGTA (1 mM), HEPE (pH7.5) (50 mM) and BTK (2.67 nM). (BTK was obtained from Carna; FLPeptide2 was obtained from PerkinElmer and Ibrutinib was obtained from Selleck.) 5 uL of ATP solution were added to each well, followed by addition of 15 uL of BTK solution to initiate the reaction. (Note the final volume of each well was 20 uL containing MgCl2 (10 mM), Brij-35 (0.01%), DTT (2 mM), BSA (0.05%), EGTA (1 mM), HEPE (pH7.5) (50 mM), FLPeptide (1.5 uM), ATP (1 mM) and BTK (2 nM). The plates were incubated at room temperature for 90 minutes and then stopping buffer added (75 uL, containing 0.5 M EDTA) to terminate the reaction. Samples from each well were analyzed using EZ reader.
The % remaining activity was calculated using read conversion ratio (CR) according to the equation: […]
XLFit (equation 201) was used to calculate IC50's by floating both bottom and top.
BTK IC50 values are provided in Table 5, for the compounds described in Examples 1-13, wherein: • “A” denotes an IC50<1 nM; • “B” denotes an IC50 1-10 nM; and • “C” denotes an IC50>10 nM.

Bounds are passed on as bounds.

BTK, sequence (Q06187 whole entry): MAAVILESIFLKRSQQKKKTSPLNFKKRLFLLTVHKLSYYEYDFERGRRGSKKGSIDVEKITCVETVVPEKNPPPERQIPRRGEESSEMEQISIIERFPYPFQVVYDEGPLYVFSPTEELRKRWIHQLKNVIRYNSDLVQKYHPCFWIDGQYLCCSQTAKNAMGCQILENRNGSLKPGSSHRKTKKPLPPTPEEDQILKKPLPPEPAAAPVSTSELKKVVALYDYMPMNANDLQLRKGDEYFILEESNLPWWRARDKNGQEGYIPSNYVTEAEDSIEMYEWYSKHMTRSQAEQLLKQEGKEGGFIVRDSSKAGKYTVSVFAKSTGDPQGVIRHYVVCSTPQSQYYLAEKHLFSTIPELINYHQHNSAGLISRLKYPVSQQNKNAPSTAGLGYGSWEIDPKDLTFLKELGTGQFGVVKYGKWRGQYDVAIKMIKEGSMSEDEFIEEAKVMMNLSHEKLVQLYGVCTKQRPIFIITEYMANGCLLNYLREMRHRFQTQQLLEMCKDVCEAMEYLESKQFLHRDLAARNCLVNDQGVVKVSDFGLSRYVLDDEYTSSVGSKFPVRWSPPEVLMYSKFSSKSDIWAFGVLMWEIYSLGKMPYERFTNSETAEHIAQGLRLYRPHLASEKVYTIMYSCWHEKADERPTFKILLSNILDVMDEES

What is called IC50 is the concentration needed to halve the response being measured. In turn, `CC#CC(=O)NC1CCC=C(c2c(F)cc(C(N)=O)c3[nH]c(C)c(Cl)c23)C1` (racemic) [1A(rac), 4-(5-(but-2-ynamido)cyclohex-1-en-1-yl)-3-chloro-5-fluoro-2-methyl-1H-indole-7-carboxamide] yielded a 50% inhibitory concentration (IC50) of 0.001 to 0.01 µM.

`CC#CC(=O)NC1C=C(c2c(F)cc(C(N)=O)c3[nH]c(C)c(Cl)c23)CCC1` (racemic) [5B(rac), 4-(3-(but-2-ynamido)cyclohex-1-en-1-yl)-3-chloro-5-fluoro-2-methyl-1H-indole-7-carboxamide] showed an IC50 of 0.001 to 0.01 µM.

The molecule `CC#CC(=O)N[C@H]1CCC[C@H](c2c(F)cc(C(N)=O)c3[nH]c(C)c(Cl)c23)C1` (relative stereo) [Compound 6-(trans), 4-((trans)-3-(but-2-ynamido)cyclohexyl)-3-chloro-5-fluoro-2-methyl-1H-indole-7-carboxamide] registered an IC50 of 0.001 to 0.01 µM.

The molecule `CC#CC(=O)N(C)[C@H]1CCC=C(c2c(F)cc(C(N)=O)c3[nH]c(C)c(C)c23)C1` [4A(S), (S)-5-fluoro-2,3-dimethyl-4-(5-(N-methylbut-2-ynamido)cyclohex-1-en-1-yl)-1H-indole-7-carboxamide] showed an IC50 of 0.001 to 0.01 µM.

Consider `CC#CC(=O)N(C)[C@@H]1C=C(c2c(F)cc(C(N)=O)c3[nH]c(C)c(C)c23)CCC1` [4B(S), (S)-5-fluoro-2,3-dimethyl-4-(3-(N-methylbut-2-ynamido)cyclohex-1-en-1-yl)-1H-indole-7-carboxamide], for which the IC50 was 0.001 to 0.01 µM.

Take `CC#CC(=O)N[C@H]1C=C(c2c(F)cc(C(N)=O)c3[nH]c(C)c(Cl)c23)CCC1` [5B(R), (R)-4-(3-(but-2-ynamido)cyclohex-1-en-1-yl)-3-chloro-5-fluoro-2-methyl-1H-indole-7-carboxamide]: the IC50 lay in the range of 0.001 to 0.01 µM.

`CC#CC(=O)N[C@@H]1CCC[C@@H](c2c(F)cc(C(N)=O)c3[nH]c(C)c(Cl)c23)C1` [6-(1R,3R), 4-((1R,3R)-3-(but-2-ynamido)cyclohexyl)-3-chloro-5-fluoro-2-methyl-1H-indole-7-carboxamide]: the IC50 was more than 0.01 µM.

On to `CC#CC(=O)N[C@H]1CCC[C@H](c2c(F)c(F)c(C(N)=O)c3[nH]c(C)c(Cl)c23)C1` [11-(1S,3S), 4-[(1S,3S)-3-(but-2-ynoylamino)cyclohexyl]-3-chloro-5,6-difluoro-2-methyl-1H-indole-7-carboxamide], for which the IC50 was more than 0.01 µM.

The molecule `CC#CC(=O)N[C@H]1CC[C@H](c2c(F)cc(C(N)=O)c3[nH]c(C)c(C)c23)C1` [12-(1S,3S), 4-((1S,3S)-3-(but-2-ynamido)cyclopentyl)-5-fluoro-2,3-dimethyl-1H-indole-7-carboxamide] displayed an IC50 of more than 0.01 µM.

Regarding `CC#CC(=O)N[C@@H]1CC[C@H](c2c(F)cc(C(N)=O)c3[nH]c(C)c(C)c23)C1` [13-(1S,3R), 4-((1S,3R)-3-(but-2-ynamido)cyclopentyl)-5-fluoro-2,3-dimethyl-1H-indole-7-carboxamide], the IC50 is more than 0.01 µM.

Consider `CC#CC(=O)N[C@H]1CCC[C@H](c2c(F)c(F)c(C(N)=O)c3[nH]c(C)c(C#N)c23)C1` [Compound 7-(1S,3S), 4-((1S,3S)-3-(but-2-ynamido)cyclohexyl)-3-cyano-5,6-difluoro-2-methyl-1H-indole-7-carboxamide], for which the IC50 was more than 0.01 µM.

`CC#CC(=O)N[C@@H]1CCC[C@@H](c2c(F)c(F)c(C(N)=O)c3[nH]c(C)c(F)c23)C1` [Compound 8-(1R,3R), 4-((1R,3R)-3-(but-2-ynamido)cyclohexyl)-3,5,6-trifluoro-2-methyl-1H-indole-7-carboxamide] registered an IC50 of 0.001 to 0.01 µM.

`CC#CC(=O)N[C@H]1CCC[C@@H](c2c(F)c(F)c(C(N)=O)c3[nH]c(C)c(F)c23)C1` [Compound 8-(1R,3S), 4-((1R,3S)-3-(but-2-ynamido)cyclohexyl)-3,5,6-trifluoro-2-methyl-1H-indole-7-carboxamide] came in with an IC50 of 0.001 to 0.01 µM.

For `CC#CC(=O)N[C@@H]1CCC[C@H](c2c(F)c(F)c(C(N)=O)c3[nH]c(C)c(F)c23)C1` [Compound 8-(1S,3R), 4-((1S,3R)-3-(but-2-ynamido)cyclohexyl)-3,5,6-trifluoro-2-methyl-1H-indole-7-carboxamide], the half-maximal inhibitory concentration (IC50) is more than 0.01 µM.

As to `CC#CC(=O)N[C@H]1CCC[C@H](c2c(F)c(F)c(C(N)=O)c3[nH]c(C)c(F)c23)C1` [Compound 8-(1S,3S), 4-((1S,3S)-3-(but-2-ynamido)cyclohexyl)-3,5,6-trifluoro-2-methyl-1H-indole-7-carboxamide], the IC50 is more than 0.01 µM.

`CC#CC(=O)N[C@@H]1CCC[C@@H](c2c(F)c(F)c(C(N)=O)c3[nH]c(C)c(C)c23)C1` [Compound 9-(1R,3R), 4-((1R,3R)-3-(but-2-ynamido)cyclohexyl)-5,6-difluoro-2,3-dimethyl-1H-indole-7-carboxamide] showed a half-maximal inhibitory concentration (IC50) of more than 0.01 µM.

In the case of `CC#CC(=O)N[C@H]1CCC[C@@H](c2c(F)c(F)c(C(N)=O)c3[nH]c(C)c(C)c23)C1` [Compound 9-(1R,3S), 4-((1R,3S)-3-(but-2-ynamido)cyclohexyl)-5,6-difluoro-2,3-dimethyl-1H-indole-7-carboxamide], the IC50 was more than 0.01 µM.

Molecule `CC#CC(=O)N[C@@H]1CCC[C@H](c2c(F)c(F)c(C(N)=O)c3[nH]c(C)c(C)c23)C1` [Compound 9-(1S,3R), 4-((1S,3R)-3-(but-2-ynamido)cyclohexyl)-5,6-difluoro-2,3-dimethyl-1H-indole-7-carboxamide] had an IC50 of 0.001 to 0.01 µM.

Consider `CC#CC(=O)N[C@H]1CCC[C@H](c2c(F)c(F)c(C(N)=O)c3[nH]c(C)c(C)c23)C1` [Compound 9-(1S,3S), 4-((1S,3S)-3-(but-2-ynamido)cyclohexyl)-5,6-difluoro-2,3-dimethyl-1H-indole-7-carboxamide], for which the IC50 is 0.001 to 0.01 µM.
